Blank lines part the entries; values can stand above or below the molecule they belong to.
Legend:
[1] = biological target: S1P2-R (Homo sapiens, UniProt O95136); assay: S1P2-R selectivity counter screen; type: cell-based; details: at concentrations up to 50 µM
[2] = biological target: T1, S1P4-R (Homo sapiens, UniProt O95977); assay: S1P4-R selectivity counter screen; type: cell-based; details: at concentrations up to 50 µM
T1 sequence (O95977 1-384): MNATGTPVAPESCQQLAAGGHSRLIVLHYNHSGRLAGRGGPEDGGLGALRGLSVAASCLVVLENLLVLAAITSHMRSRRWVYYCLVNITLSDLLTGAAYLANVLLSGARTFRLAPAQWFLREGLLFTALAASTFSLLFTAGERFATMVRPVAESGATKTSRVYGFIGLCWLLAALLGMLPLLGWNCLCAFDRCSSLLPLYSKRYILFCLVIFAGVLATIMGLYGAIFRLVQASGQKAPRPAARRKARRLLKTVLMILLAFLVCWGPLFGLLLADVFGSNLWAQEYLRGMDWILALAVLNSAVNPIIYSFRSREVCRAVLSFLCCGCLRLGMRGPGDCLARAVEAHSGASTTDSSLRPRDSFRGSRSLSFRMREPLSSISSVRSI

[3] = biological target: S1P1-R (Homo sapiens, UniProt P21453); assay: S1P1-R agonist assay; type: cell-based
S1P1-R, sequence (P21453 whole entry): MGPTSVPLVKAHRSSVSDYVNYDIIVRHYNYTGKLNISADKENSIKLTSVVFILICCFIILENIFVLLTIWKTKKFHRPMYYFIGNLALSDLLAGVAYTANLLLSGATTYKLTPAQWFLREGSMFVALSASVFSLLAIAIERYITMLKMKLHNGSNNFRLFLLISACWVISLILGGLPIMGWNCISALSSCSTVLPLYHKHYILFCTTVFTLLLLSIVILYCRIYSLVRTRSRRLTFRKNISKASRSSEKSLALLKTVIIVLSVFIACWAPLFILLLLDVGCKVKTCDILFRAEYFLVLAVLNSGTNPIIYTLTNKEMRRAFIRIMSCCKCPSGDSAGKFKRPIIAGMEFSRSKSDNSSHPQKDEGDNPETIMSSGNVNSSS

[4] = biological target: T2, S1P3-R (Homo sapiens, UniProt Q99500); assay: S1P3-R agonist assay, CHO NFAT-BLA reporter; type: cell-based; details: for loss in potency for the S1P3-R relative to hit 1a: less potent than 1a; for selectivity against S1P1,2,4,5-R subtypes (in words): S1P3-R agonist versus remaining subtypes; for loss of potency at S1P3-R relative to 5f: less potent than 5f
T2 sequence (Q99500 whole entry): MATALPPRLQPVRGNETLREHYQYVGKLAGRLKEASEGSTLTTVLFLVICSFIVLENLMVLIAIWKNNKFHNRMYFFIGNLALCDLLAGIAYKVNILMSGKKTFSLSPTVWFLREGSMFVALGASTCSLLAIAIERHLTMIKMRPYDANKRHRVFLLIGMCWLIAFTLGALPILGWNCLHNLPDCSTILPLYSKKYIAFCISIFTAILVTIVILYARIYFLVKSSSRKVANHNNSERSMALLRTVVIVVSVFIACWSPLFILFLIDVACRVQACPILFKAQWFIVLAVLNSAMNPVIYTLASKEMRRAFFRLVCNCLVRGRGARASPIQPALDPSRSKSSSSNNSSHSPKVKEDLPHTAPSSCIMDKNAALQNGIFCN

[5] = system: Ricerca panel of off target proteins including GPCRs, enzymes and ion channels; assay: Ricerca panel of off target proteins; details: at 30 µM; targets other than those singled out
[6] = biological target: T2, S1P3-R; assay: [33P]S1P competitive binding experiment in S1P3 jump-in CHO cells; details: 0.1 nM [33P]S1P; competitor 0.001 nM to 10 µM; 4 °C, 30 min
[7] = system: sodium channel site two; assay: Ricerca panel: sodium channel site two; type: binding; details: 30 µM; borderline inhibition

S1P2-R, sequence (O95136 whole entry): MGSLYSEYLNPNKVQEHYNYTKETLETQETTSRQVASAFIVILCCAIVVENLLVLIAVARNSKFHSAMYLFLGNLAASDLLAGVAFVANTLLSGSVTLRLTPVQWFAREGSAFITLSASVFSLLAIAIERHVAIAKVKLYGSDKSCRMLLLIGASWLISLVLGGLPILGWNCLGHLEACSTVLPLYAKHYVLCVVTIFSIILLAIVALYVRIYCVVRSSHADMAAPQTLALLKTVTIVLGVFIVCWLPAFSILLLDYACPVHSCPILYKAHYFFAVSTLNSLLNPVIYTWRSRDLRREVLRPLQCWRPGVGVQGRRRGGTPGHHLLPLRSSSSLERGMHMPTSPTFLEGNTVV

SMILES: CCCc1cc(C(=O)N(C2CCCCC2)C2CCCCC2)no1 [Compd 1a, N,N-dicyclohexyl-5-propylisoxazole-3-carboxamide]
agonist activity at S1P2-R [1]: no agonist activity
agonist activity at S1P4-R [2]: no agonist activity

SMILES: CCCc1cc(C(=O)N(C2CCCCC2)C2CCCC2)no1 [Compd 1b]
loss in potency for the S1P1-R relative to hit 1a ([3]; less potent than 1a): three-fold
loss in potency for the S1P3-R relative to hit 1a [4]: 18 fold

SMILES: CCCc1cc(C(=O)NC2CCCCC2)no1 [Compd 1c]
activity at S1P1-R (in words) [3]: complete loss of potency
activity at S1P3-R (in words) [4]: complete loss of potency

SMILES: CCCc1cc(C(=O)N(c2ccccc2)C2CCCCC2)no1 [Compd 1d]
activity at S1P1-R (in words) [3]: complete loss of potency
activity at S1P3-R (in words) [4]: complete loss of potency

SMILES: CC(C)Cc1cc(C(=O)N(C2CCCCC2)C2CCCCC2)no1 [Compd 5a]
less selective against the S1P1-R than the hit ([3]; S1P3-R over S1P1-R, relative to 1a): four-fold
loss in potency for the S1P3-R relative to hit 1a [4]: three-fold

SMILES: CC(C)c1cc(C(=O)N(C2CCCCC2)C2CCCCC2)no1 [Compd 5b]
loss in potency for the S1P3-R relative to hit 1a [4]: two-fold

SMILES: Cc1cc(C(=O)N(C2CCCCC2)C2CCCCC2)no1 [Compd 5c]
loss in potency for the S1P3-R relative to hit 1a [4]: 15 fold

SMILES: O=C(c1cc(C2CCCCC2)on1)N(C1CCCCC1)C1CCCCC1 [Compd 5d]
activity at S1P1-R (in words) [3]: inactive

SMILES: O=C(c1cc(C2CCCC2)on1)N(C1CCCCC1)C1CCCCC1 [Compd 5e]
activity at S1P1-R (in words) [3]: inactive

SMILES: O=C(c1cc(C2CC2)on1)N(C1CCCCC1)C1CCCCC1 [Compd 5f, N,N-dicyclohexyl-5-cyclopropylisoxazole-3-carboxamide]
stimulation/inhibition of panel targets [5]: < 50%
competition with [33P]S1P for the S1P3-R binding pocket [6]: does not compete
inhibition of sodium channel site two [7]: ≥ 50%
selectivity against S1P1,2,4,5-R subtypes (in words) [4]: exquisitely selective
more potent than the hit at S1P3-R ([4]; relative to 1a): four-fold

SMILES: COc1ccc(-c2cc(C(=O)N(C3CCCCC3)C3CCCCC3)no2)cc1 [Compd 5h]
selectivity against the S1P1-R ([3]; S1P3-R over S1P1-R): less than three-fold

SMILES: CCOc1ccc(-c2cc(C(=O)N(C3CCCCC3)C3CCCCC3)no2)cc1OCC [Compd 5i]
loss in potency for the S1P3-R relative to hit 1a [4]: 18 fold

SMILES: CCCCCCCCCCCCC/C=C/[C@@H](O)[C@@H](N)COP(=O)(O)O [S1P, Sphingosine-1-phosphate, reference compound]
competition with [33P]S1P for the S1P3-R binding pocket [6]: competes

The next lines start with the values.

activity at S1P3-R (in words) [4]: complete loss of activity
SMILES: O=C(NC1CCCCC1)c1cc(C2CC2)on1 [Compd 7a]

loss of potency at S1P3-R relative to 5f [4]: 16 fold
SMILES: O=C(c1cc(C2CC2)on1)N(C1CCCCC1)C1CCCC1 [Compd 7b]

loss of potency at S1P3-R relative to 5f [4]: 33 fold
SMILES: O=C(c1cc(C2CC2)on1)N(C1CCCCC1)C1CCOCC1 [Compd 7c]

loss of potency at S1P3-R relative to 5f [4]: 32 fold
SMILES: O=C(c1cc(C2CC2)on1)N(CC1CCCCC1)C1CCCCC1 [Compd 7d]

selectivity against S1P1,2,4,5-R subtypes (in words) [4]: exquisitely selective
loss of potency at S1P3-R relative to 5f [4]: three-fold
SMILES: CC1CCCCC1N(C(=O)c1cc(C2CC2)on1)C1CCCCC1 (centres unmarked) [Compd 7e]

selectivity against S1P1,2,4,5-R subtypes (in words) [4]: exquisitely selective
loss of potency at S1P3-R relative to 5f [4]: two-fold
SMILES: CC1CCCCC1N(C(=O)c1cc(C2CC2)on1)C1CCCCC1C (centres unmarked) [Compd 7f]

less potent than 7e at S1P3-R ([4]; relative to 7e): almost two-fold
SMILES: CC1CCCCC1N(C(=O)c1cc(C2CC2)on1)C1CCCCCC1 (centres unmarked) [Compd 7g]

loss of potency at S1P3-R relative to 5f [4]: 26 fold
SMILES: O=C(c1cc(C2CC2)on1)N(C1CCCCCC1)C1CCCC1 [Compd 7j]

activity at S1P3-R (in words) [4]: drastic loss in potency
SMILES: O=C(c1cc(C2CC2)on1)N(Cc1ccccc1)c1ccccc1 [Compd 7k]

activity at S1P3-R (in words) [4]: drastic loss in potency
SMILES: O=C(c1cc(C2CC2)on1)N(Cc1ccccc1)c1ccccn1 [Compd 7l]

activity at S1P3-R (in words) [4]: inactive
SMILES: O=C(c1coc(C2CC2)n1)N(C1CCCCC1)C1CCCCC1 [Compd 9a]

activity at S1P1-R (in words) [3]: micromolar activity
activity at S1P3-R (in words) [4]: inactive
SMILES: O=C(c1ccc(C2CC2)o1)N(C1CCCCC1)C1CCCCC1 [Compd 9b]

activity at S1P3-R (in words) [4]: inactive
SMILES: O=C(c1noc2ccccc12)N(C1CCCCC1)C1CCCCC1 [Compd 9c]
